Laboratory results from patent publication US20090280153A1, “electrical devices, anti-scarring agents, and therapeutic compositions” (Angiotech International AG, priority 2005, published 2009).
Read-outs that look alike come from different tables or passages of the source.

Assays:
[1] = tested on: fibroblasts and/or smooth muscle cells, macrophages; experiment: assays described herein (in vitro screening assays for anti-fibrosis agents); format: cell-based; details: approximately, read-out: IC50 range in the assays described herein
Excerpt: Agents which may inhibit fibrosis or gliosis may be readily identified based upon in vitro and in vivo (animal) models, such as those provided in Examples 39-52. Depending on their mechanisms, various agents may be effective in some, but not all screening assays for anti-fibrosis or anti-gliosis agents, and different agents may be effective in different screening assays. Agents which inhibit fibrosis can be identified through in vivo models including inhibition of intimal hyperplasia development in the rat balloon carotid artery model (Examples 44 and 61). The assays set forth in Examples 43 and 51 may be used to determine whether an agent is able to inhibit cell proliferation in fibroblasts and/or smooth muscle cells. In one aspect of the invention, the agent has an IC50 for inhibition of cell proliferation within a range of about 10^−6 to about 10^−10 M. In certain embodiments, the agent may have an IC50 for inhibition of cell proliferation of less than about 10,000 nM; or less than about 1000 nM; or less than about 100 nM. The assay set forth in Example 47 may be used to determine whether an agent may inhibit migration of fibroblasts and/or smooth muscle cells. In one aspect of the invention, the agent has an IC50 for inhibition of cell migration within a range of about 10^−6 to about 10^−9M. In certain embodiments, the agent may have an IC50 for inhibition of fibroblast or smooth muscle cell migration of less than about 10,000 nM; or less than about 1000 nM; or less than about 100 nM. Assays set forth herein may be used to determine whether an agent is able to inhibit inflammatory processes, including nitric oxide production in macrophages (Example 39), and/or TNF-alpha production by macrophages (Example 40), and/or IL-1 beta production by macrophages (Example 48), and/or IL-8 production by macrophages (Example 49), and/or inhibition of MCP-1 by macrophages (Example 50). In one aspect of the invention, the agent has an IC50 for inhibition of any one of these inflammatory processes within a range of about 10^−6 to about 10^−10M. In certain embodiments, the agent may have an IC50 for any one of these inflammatory processes of less than about 10,000 nM; or less than about 1000 nM; or less than about 100 nM. The assay set forth in Example 45 may be used to determine whether an agent is able to inhibit MMP production. In one aspect of the invention, the agent has an IC50 for inhibition of MMP production within a range of about 10^−4 to about 10^−8M. In certain embodiments, the agent may have an IC50 for inhibition of MMP production of less than about 10,000 nM; or less than about 1000 nM; or less than about 100 nM. The assay set forth in Example 46 (also known as the CAM assay) may be used to determine whether an agent is able to inhibit angiogenesis. In one aspect of the invention, the agent has an IC50 for inhibition of angiogenesis within a range of about 10^−6 to about 10^−10M. In certain embodiments, the agent may have an IC50 for inhibition of angiogenesis of less than about 10,000 nM; or less than about 1000 nM; or less than about 100 nM. The assay set forth in Example 52 may be used to determine whether an agent is able to inhibit MMP-1. In one aspect of the invention, the agent has an IC50 for inhibition of MMP-1 within a range of about 10^−6 to about 10^−10M. In certain embodiments, the agent may have an IC50 for inhibition of MMP-1 of less than about 10,000 nM; or less than about 1000 nM; or less than about 100 nM. Agents which reduce the formation of surgical adhesions may be identified through in vivo models including the rabbit surgical adhesions model (Example 42) and the rat caecal sidewall model (Example 41). […]

bacteria and fungi = details: surface drug concentration is to exceed this value; cited from earlier work
AP-1 = experiment: IL-1 induced AP-1 binding activity in chondrocyte lysates (FIG. 4C); format: cell-based; details: chondrocytes pretreated with paclitaxel
[2] = tested on: collagenase and stromelysin; experiment: IL-1 induced collagenase and stromelysin expression in chondrocytes (FIGS. 4D, 5A-H); format: cell-based; details: pretreatment with paclitaxel; FIG. 4D
[3] = high potency (1-100) or mid-potency (100-500) agents

Structure (SMILES)	IC50 [1, 3] [nM]	other results
C[C@@H]1C[C@H]2O[C@@H]2/C=C\C=C\C(=O)Cc2c(Cl)c(O)cc(O)c2C(=O)O1 [radicicol]	1 to 100	–
O=C1c2c(O)ccc(O)c2C(=O)c2c(NCCNCCO)ccc(NCCNCCO)c21 [mitoxantrone]	–	concentration known to be lethal to bacteria and fungi (bacteria and fungi): 10^−5 M
CCC(C)(C)C(=O)O[C@H]1C[C@@H](C)C=C2C=C[C@H](C)[C@H](CC[C@@H]3C[C@@H](O)CC(=O)O3)[C@H]21 [simvastatin]	–	IC50 ([1]; low potency agents): 500 to 1000 nM
CCC1=C[C@@H]2CN(C1)Cc1c([nH]c3ccccc13)[C@@](C(=O)OC)(c1cc3c(cc1OC)N(C)[C@H]1[C@@](O)(C(=O)OC)[C@H](OC(C)=O)[C@]4(CC)C=CCN5CC[C@]31[C@@H]54)C2 [vinorelbine]	1 to 100	–
COc1ccc(C[C@H](N)C(=O)N[C@H]2[C@@H](O)[C@H](n3cnc4c(N(C)C)ncnc43)O[C@@H]2CO)cc1 [puromycin]	100 to 500	–
Nc1nc(Cl)nc2c1ncn2[C@H]1C[C@H](O)[C@@H](CO)O1 [cladribine]	100 to 500	–
O=C1C=CC(=O)c2c(O)cccc21 [juglone]	100 to 500	–
Cc1ccc(=O)n(-c2ccccc2)c1 [pirfenidone]	1 to 100	–
C[C@]12C=CC(=O)C=C1CC[C@@H]1[C@@H]2[C@@H](O)C[C@@]2(C)[C@H]1CC[C@]2(O)C(=O)CO [prednisolone]	100 to 500	–
O=c1[nH]cc(F)c(=O)[nH]1 [5-fluorouracil, 5-Fluorouracil]	–	concentration known to be lethal to bacteria and fungi (bacteria and fungi): 10^−4 M
COCc1c(C(C)C)nc(C(C)C)c(/C=C/[C@@H](O)C[C@@H](O)CC(=O)O)c1-c1ccc(F)cc1 [cerivastatin]	1 to 100	–
C=CC[C@@H]1/C=C(\C)C[C@H](C)C[C@H](OC)[C@H]2O[C@@](O)(C(=O)C(=O)N3CCCC[C@H]3C(=O)O[C@H](/C(C)=C/[C@@H]3CC[C@@H](O)[C@H](OC)C3)[C@H](C)[C@@H](O)CC1=O)[C@H](C)C[C@@H]2OC [tacrolimus]	1 to 100	–
CCOC(=O)O[C@]1(C(=O)OCCl)CC[C@H]2[C@@H]3CCC4=CC(=O)C=C[C@]4(C)[C@H]3[C@@H](O)C[C@@]21C [loteprednol etabonate]	100 to 500	–
CC1=C(/C=C/C(C)=C/C=C/C(C)=C\C(=O)O)C(C)(C)CCC1 [isotretinoin]	1 to 100	–
Nc1ncn([C@@H]2O[C@H](CO)[C@@H](O)[C@H]2O)c(=O)n1 [5-azacytidine]	–	IC50 ([1]; low potency agents): 500 to 1000 nM
CCC(=O)O[C@]1(C(=O)CCl)[C@@H](C)C[C@H]2[C@@H]3CCC4=CC(=O)C=C[C@]4(C)[C@@]3(F)[C@@H](O)C[C@@]21C [clobetasol propionate]	1 to 100	–
COc1cccc2c1C(=O)c1c(O)c3c(c(O)c1C2=O)C[C@@](O)(C(=O)CO)C[C@@H]3O[C@H]1C[C@H](N)[C@H](O)[C@H](C)O1 [doxorubicin, Doxorubicin]	–	concentration known to be lethal to bacteria and fungi (bacteria and fungi): 10^−4 M
CC(=O)O[C@H]1C(=O)[C@@]2(C)[C@H]([C@H](OC(=O)c3ccccc3)[C@]3(O)C[C@H](OC(=O)[C@H](O)[C@@H](NC(=O)c4ccccc4)c4ccccc4)C(C)=C1C3(C)C)[C@]1(OC(C)=O)CO[C@@H]1C[C@@H]2O [paclitaxel]	–	IL-1 induced binding activity in lysates from chondrocytes (AP-1): decreased; IL-1 induction of collagenase and stromelysin RNA levels in chondrocytes [2]: inhibited
CN(C)C[C@@H]1CCn2cc(c3ccccc32)C2=C(C(=O)NC2=O)c2cn(c3ccccc23)CCO1 [Ly333531 (ruboxistaurin), ruboxistaurin]	–	IC50 ([1]; low potency agents): 500 to 1000 nM
C/C=C(/C)C(=O)O[C@H]1C(C)=C2[C@H]([C@@H]1OC(=O)CCCCCCC)[C@@](C)(OC(C)=O)C[C@H](OC(=O)CCC)[C@@]1(O)[C@H]2OC(=O)[C@@]1(C)O [thapsigargin]	1 to 100	–
COc1cc([C@@H]2c3cc4c(cc3[C@@H](O[C@@H]3O[C@@H]5CO[C@@H](C)O[C@H]5[C@H](O)[C@H]3O)[C@H]3COC(=O)[C@H]23)OCO4)cc(OC)c1O [etoposide, Etoposide]	–	concentration known to be lethal to bacteria and fungi (bacteria and fungi): 10^−5 M
O=C[C@@H](O)[C@@H](O)[C@H](O)[C@H](O)COP(=O)(O)O [mannose-6-phosphate]	100 to 500	–
COC(=O)C[C@](O)(CCCC(C)(C)O)C(=O)O[C@@H]1C(OC)=C[C@]23CCCN2CCc2cc4c(cc2[C@H]13)OCO4 [homoharringtonine]	1 to 100	–
